Measurements from PMC6522981, “Structure-based design generated novel hydroxamic acid based preferential HDAC6 lead inhibitor with on-target cytotoxic activity against primary choroid plexus carcinoma” (Journal of Enzyme Inhibition and Medicinal Chemistry, 2019).

How the values were obtained:
human HDAC7 = target: T1, human HDAC7 (Homo sapiens, UniProt Q8WUI4); experiment: HDAC7 inhibitor enzymatic assay, % inhibition at fixed concentration; settings: read-out: %inhibition of HDACs at 10µM of test compound HDAC7
T1 sequence (Q8WUI4 479-952 limits assumed): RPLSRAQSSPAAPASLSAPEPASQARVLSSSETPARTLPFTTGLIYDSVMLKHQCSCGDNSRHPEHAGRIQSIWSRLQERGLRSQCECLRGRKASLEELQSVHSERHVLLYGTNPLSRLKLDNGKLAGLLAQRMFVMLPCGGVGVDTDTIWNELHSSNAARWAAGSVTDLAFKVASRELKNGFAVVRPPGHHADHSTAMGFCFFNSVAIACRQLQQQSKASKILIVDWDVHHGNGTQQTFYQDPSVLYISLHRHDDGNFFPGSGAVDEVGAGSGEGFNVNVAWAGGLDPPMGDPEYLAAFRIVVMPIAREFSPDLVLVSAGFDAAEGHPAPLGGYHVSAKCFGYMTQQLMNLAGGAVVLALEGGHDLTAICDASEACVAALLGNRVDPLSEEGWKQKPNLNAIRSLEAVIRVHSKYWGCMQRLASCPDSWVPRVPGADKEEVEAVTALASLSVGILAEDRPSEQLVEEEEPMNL

human HDAC10 = target: T2, human HDAC10 (Homo sapiens, UniProt Q969S8); experiment: HDAC10 inhibitor enzymatic assay, % inhibition at fixed concentration; settings: read-out: %inhibition of HDACs at 10µM of test compound HDAC10
T2 sequence (Q969S8 1-669): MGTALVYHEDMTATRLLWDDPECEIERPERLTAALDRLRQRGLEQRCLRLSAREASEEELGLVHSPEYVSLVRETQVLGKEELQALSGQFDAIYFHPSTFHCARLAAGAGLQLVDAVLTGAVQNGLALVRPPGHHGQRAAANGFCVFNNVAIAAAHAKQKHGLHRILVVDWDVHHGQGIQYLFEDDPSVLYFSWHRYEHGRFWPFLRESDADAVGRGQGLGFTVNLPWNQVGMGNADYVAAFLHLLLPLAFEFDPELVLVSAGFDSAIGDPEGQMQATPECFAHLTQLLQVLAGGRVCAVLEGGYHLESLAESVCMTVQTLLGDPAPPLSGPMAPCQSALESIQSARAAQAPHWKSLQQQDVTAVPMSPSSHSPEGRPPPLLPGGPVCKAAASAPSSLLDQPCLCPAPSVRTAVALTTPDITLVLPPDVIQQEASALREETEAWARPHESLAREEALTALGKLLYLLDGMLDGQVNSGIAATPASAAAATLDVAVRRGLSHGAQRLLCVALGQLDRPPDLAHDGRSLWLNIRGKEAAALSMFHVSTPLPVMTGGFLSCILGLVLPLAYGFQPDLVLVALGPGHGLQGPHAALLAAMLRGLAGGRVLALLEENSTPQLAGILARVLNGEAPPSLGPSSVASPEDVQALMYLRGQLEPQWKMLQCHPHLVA

human HDAC3/NCOR2 = human HDAC3/NCOR2 (Homo sapiens, UniProt O15379); experiment: HDAC3/NCOR2 inhibitor enzymatic assay, % inhibition at fixed concentration; settings: read-out: %inhibition of HDACs at 10µM of test compound HDAC3
Chain of human HDAC3/NCOR2 (O15379 whole entry): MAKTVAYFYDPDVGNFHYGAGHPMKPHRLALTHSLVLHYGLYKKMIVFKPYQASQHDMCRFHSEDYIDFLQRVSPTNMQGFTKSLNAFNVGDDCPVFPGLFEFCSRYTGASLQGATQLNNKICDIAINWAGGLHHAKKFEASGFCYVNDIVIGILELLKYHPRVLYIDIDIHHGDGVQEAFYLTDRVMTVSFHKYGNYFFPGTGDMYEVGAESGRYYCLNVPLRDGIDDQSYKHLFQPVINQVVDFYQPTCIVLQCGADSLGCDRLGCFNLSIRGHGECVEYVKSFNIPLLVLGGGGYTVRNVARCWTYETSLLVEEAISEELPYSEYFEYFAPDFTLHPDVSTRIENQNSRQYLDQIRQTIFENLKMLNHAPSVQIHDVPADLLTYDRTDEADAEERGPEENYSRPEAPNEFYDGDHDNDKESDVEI
Chain of human HDAC3/NCOR2 (Q9Y618 395-489 partner limits assumed): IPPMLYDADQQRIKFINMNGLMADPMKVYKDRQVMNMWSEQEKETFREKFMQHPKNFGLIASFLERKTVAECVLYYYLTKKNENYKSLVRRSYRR

inhibition at 10 µM (human HDAC7): 2%
inhibition at 10 µM (human HDAC10): 28%
inhibition at 10 µM (human HDAC3/NCOR2): 37%
Structure (SMILES): O=C(CCCSc1nc2ccccc2n1Cc1ccccc1)NO [Compound 10a, 4-((1-benzyl-1H-benzo[d]imidazol-2-yl)thio)-N-hydroxybutanamide]
